According to patent US20080153824A1, “Method for Controlling Fungal Diseases in Leguminous Plants” (BASF Aktiengesellschaft, priority 2004, published 2008):

Test system: soybean rust
Test: Seed dressing trial, activity against soybean rust
Type: in vivo, soybean rust on soybean plants (cultivar BRS 133)
Details: soybean seeds cultivar BRS 133 treated with 1000 g orysastrobin/100 kg of seed (SC, 250 g/l, liquid dressing); inoculated 3 weeks after sowing; assessed 11 days after inoculation; untreated-seed plants 79% infected
Method: Seed dressing trial, activity against soybean rust
Soybean seeds of the cultivar BRS 133 were treated with 1000 g of orysastrobin/100 kg of seed, formulated as SC with 250 g of active compound per liter, as liquid dressing, then sown into pots and cultivated in a greenhouse at about 22° C. 3 weeks after sowing, the plants were inoculated with soybean rust, incubated at 100% relative atmospheric humidity for 24 hours and then again cultivated in the greenhouse. At the time of inoculation, the first pair of leaves and one subsequent leaf had developed. The infection of the leaves was assessed 11 days after the inoculation.

CNC(=O)/C(=N/OC)c1ccccc1CO/N=C(C)/C(=N/OC)C(C)=NOC (stereo in doubt) [orysastrobin, (2E)-2-(methoxyimino)-2-{2-[(3E,5E,6E)-5-(methoxyimino)-4,6-dimethyl-2,8-dioxa-3,7-diazanona-3,6-dien-1-yl]phenyl}-N-methylacetamide]
total infection of the leaves: less than 1%
